Like-named read-outs stand apart in the source and are kept apart here.
Assays:
in vitro [1] = conditions: human
[2] = system: porcine epidemic diarrhea virus (PEDV); experiment: Anti-porcine epidemic diarrhea virus (PEDV) activity test in Vero cells, fluorescence quantitative PCR; assay type: cell-based; conditions: 36 h
in vivo = conditions: male, CD-1, mouse, po, 50 mg/kg
[3] = system: respiratory syncytial virus (RSV); experiment: Cytopathic effect (CPE) assay, RSV in HEp-2; assay type: cell-based; conditions: human respiratory syncytial virus, HEp-2 cells
[4] = system: human coronavirus OC43 (HCoV OC43); experiment: Cytopathic effect (CPE) assay, HCoV OC43 in Huh7; assay type: cell-based; conditions: Betacoronavirus 1, OC43, Huh-7, Huh7 cells
Description: The inhibitory effects of compounds on the replication of respiratory syncytial virus (RSV), human coronavirus OC43, influenza A virus, Zika virus (Zika) were tested using cytopathic effect (CPE) assay.
Experimental cells were inoculated in 96-well cell culture plate at a certain cell density, and cultured in an incubator (5% CO2, 37° C.) overnight. Compounds and viruses were added on the second day. […] Then cell viability of each well was detected using Cell Titer-Glo or CCK-8. […] The cytotoxicity test method was the same as the corresponding antiviral test method without virus infection.
The antiviral activity and cytotoxicity of the compounds are respectively indicated by the inhibition rate (%) of compounds on virus-induced cellular viral effects and cell viability (%). Calculating formulas are as follows:
Inhibition rate (%)=(reading value of test well—average value of virus control)/(average value of cell control—average value of virus control)×100;
EC50 and CC50 value are calculated by Prism software, and the inhibition curve fitting method is “log (inhibitor) vs. response—Variable slope”.

[5] = system: 2019 novel coronavirus (SARS-CoV-2); experiment: microbe, parasite or virus in culture; assay type: cell-based; conditions: for inhibition at 5 µM: read-out: Inhibition Rate (5 μM); for inhibition at 10 µM: read-out: Inhibition Rate (10 μM)
[6] = Pharmacokinetic evaluation in mice; conditions: male, CD-1, mouse, in vivo, po, 50 mg/kg
in vitro [7] = conditions: human; remark: listed apart in the source
[8] = system: dengue fever virus (DENV); experiment: Dengue virus plaque reduction test in Vero cells; assay type: cell-based; conditions: for inhibition at 5 µM: Dengue virus, read-out: DENV (Vero) 5 μM (inhibition rate), 5 μM, plaque reduction
[9] = target: RNA-dependent RNA polymerase (RdRp) of 2019 novel coronavirus (SARS-CoV-2) (Severe acute respiratory syndrome coronavirus 2 (2019-nCoV) (SARS-CoV-2), UniProt P0DTD1); experiment: Inhibition of RdRp of novel coronavirus, fluorescence method; assay type: biochemical; conditions: for inhibition of the activity of RdRp (in words): RdRp of novel coronavirus
Description: According to the method reported in the literature (Virus Genes, 2015, 50:498-504), the inhibitory activity of the compound of the invention on RNA-dependent RNA polymerase (RdRp) of 2019 novel coronavirus (SARS-CoV-2) was determined using the fluorescence method: after the solution of the novel coronavirus RdRp, substrate, compound solution, buffer solution, etc were co-incubated for 1 hour, fluorescent DNA binding dye was added. 10 minutes later, data collection was carried out and the inhibitory activities of the compounds on RdRp were determined.

[10] = Porcine epidemic diarrhea virus, Vero
[11] = Severe acute respiratory syndrome coronavirus 2, Vero C1008, 24 h, 5 μM, Vero E6 cells, 24 h p.i.
[12] = Severe acute respiratory syndrome coronavirus 2, Vero C1008, 24 h, 10 μM, Vero E6 cells, 24 h p.i.
[13] = Severe acute respiratory syndrome coronavirus 2, Vero C1008, 24 h
[14] = Severe acute respiratory syndrome coronavirus 2, Vero C1008, Vero E6 cells, 24 h p.i., read-out: EC50

SMILES: [2H]c1cc([C@]2(C#N)O[C@H](C([2H])([2H])O)[C@@H](O)[C@H]2O)n2ncnc(N)c12 (stereo in doubt) [Compound A11]
- CC50 (in vitro [1]): > 10 µM
- EC50 [2, 10]: 0.005 µM
- half-life (in vivo): 1.9 h
- EC50 [3]: 0.66 µM
- EC50 [4]: 1.99 µM
- inhibition at 5 µM [5, 11]: > 98%
- AUC(0-inf) [6]: 5750 ng·h/mL
- AUC(0-t) [6]: 5680 ng·h/mL
- Cmax [6]: 2120 ng/mL
- Tmax [6]: 0.7 h
- CC50 (in vitro [7]): > 10 µM

SMILES: N#C[C@@]1(c2cc(F)c3c(N)ncnn23)O[C@H](CO)[C@@H](O)[C@H]1O [Compound A1]
- inhibition at 5 µM [5, 11]: 80%
- inhibition at 10 µM [5, 12]: 97%

SMILES: N#C[C@@]1(c2cc(Cl)c3c(N)ncnn23)O[C@H](CO)[C@@H](O)[C@H]1O [Compound A2]
- inhibition at 10 µM [5, 12]: < 50%

SMILES: N#C[C@@]1(c2cc(I)c3c(N)ncnn23)O[C@H](CO)[C@@H](O)[C@H]1O [Compound A3]
- inhibition at 10 µM [5, 12]: < 50%

SMILES: N#C[C@@]1(c2ccc3c(=O)[nH]cnn23)O[C@H](CO)[C@@H](O)[C@H]1O [Compound A4]
- inhibition at 10 µM [5, 12]: < 50%

SMILES: [2H]C([2H])(O)[C@H]1O[C@@](C#N)(c2cc(F)c3c(N)ncnn23)[C@H](O)[C@@H]1O [Compound A12]
- inhibition at 5 µM [5, 11]: > 98%

SMILES: Nc1ncnn2c([C@]3(C4CC4)O[C@H](CO)[C@@H](O)[C@H]3O)ccc12 [Compound A28]
- EC50 [2, 10]: 1.1 µM
- inhibition at 5 µM [8]: 6%

SMILES: CC(C)C(=O)OC[C@H]1O[C@@](C#N)(c2ccc3c(N)ncnn23)[C@H](O)[C@@H]1O [Compound A50]
- EC50 [2]: 0.002 µM
- Inhibition Rate (5 μM) ([5]; 5 μM, Vero E6 cells, 24 h p.i.): 99%
- Inhibition Rate (10 μM) ([5]; 10 μM, Vero E6 cells, 24 h p.i.): 99%
- EC50 ([5]; Vero E6 cells, 24 h p.i., read-out: EC50): 0.23 µM

SMILES: CC(C)[C@H](N)C(=O)OC[C@H]1O[C@@](C#N)(c2ccc3c(N)ncnn23)[C@H](O)[C@@H]1O [Compound A52]
- inhibition at 5 µM [5, 11]: > 98%

SMILES: [2H]c1cc([C@]2(C#N)O[C@H](COC(=O)[C@@H](N)C(C)C)[C@@H](O)[C@H]2O)n2ncnc(N)c12 [Compound A72]
- CC50 (in vitro [1]): > 10 µM
- EC50 [3]: 0.77 µM
- inhibition at 5 µM [5, 11]: 99%

SMILES: [2H]C([2H])(OC(=O)C(C)C)[C@H]1O[C@@](C#N)(c2ccc3c(N)ncnn23)[C@H](O)[C@@H]1O [Compound A75]
- CC50 (in vitro [1]): > 10 µM
- EC50 [3]: 0.49 µM
- inhibition at 5 µM [5, 11]: 99%

SMILES: [2H]C([2H])(OC(=O)[C@@H](N)C(C)C)[C@H]1O[C@@](C#N)(c2ccc3c(N)ncnn23)[C@H](O)[C@@H]1O [Compound A77]
- inhibition at 5 µM [5, 11]: > 98%

SMILES: CCC(CC)COC(=O)[C@H](C)N[P@](=O)(OC[C@H]1O[C@@](C#N)(c2cc(F)c3c(N)ncnn23)[C@H](O)[C@@H]1O)Oc1ccccc1 [Compound A84]
- inhibition at 10 µM [5, 13]: 82%

SMILES: N#C[C@@]1(c2cc(F)c3c(N)ncnn23)O[C@H](COP(=O)(O)OP(=O)(O)OP(=O)(O)O)[C@@H](O)[C@H]1O [Compound A102]
- IC50 ([9]; RdRp of 2019 novel coronavirus): 1 to 10 µM
- inhibition of the activity of RdRp (in words) [9]: significantly inhibit the activity of RdRp

SMILES: [2H]c1cc([C@]2(C#N)O[C@H](COP(=O)(O)OP(=O)(O)OP(=O)(O)O)[C@@H](O)[C@H]2O)n2ncnc(N)c12 [Compound A106]
- inhibition of the activity of RdRp (in words) [9]: significantly inhibit the activity of RdRp

SMILES: [2H]C([2H])(OP(=O)(O)OP(=O)(O)OP(=O)(O)O)[C@H]1O[C@@](C#N)(c2ccc3c(N)ncnn23)[C@H](O)[C@@H]1O [Compound A107]
- inhibition of the activity of RdRp (in words) [9]: significantly inhibit the activity of RdRp

SMILES: N#C[C@@]1(c2ccc3c(N)ncnn23)O[C@H](COP(=O)(O)OP(=O)(O)OP(=O)(O)O)[C@@H](O)[C@H]1O [Compound A109]
- EC50 [5, 13]: 0.58 µM
- inhibition at 5 µM [5, 13]: 99%
- inhibition at 10 µM [5, 13]: 99%

SMILES: NC(=O)[C@@]1(c2ccc3c(N)ncnn23)O[C@H](CO)[C@@H](O)[C@H]1O [Compound A112]
- inhibition at 10 µM [5, 12]: < 50%

SMILES: CC(C)C(=O)OC[C@H]1O[C@@](C#N)(c2ccc3c(N)ncnn23)[C@H](OC(=O)C(C)C)[C@@H]1OC(=O)C(C)C [Compound A131]
- EC50 [2, 10]: < 0.1 µM
- inhibition at 5 µM [5, 11]: > 98%

SMILES: [2H]c1cc([C@]2(C#N)O[C@H](CO)[C@@H](OC(=O)C(C)C)[C@H]2O)n2ncnc(N)c12 [Compound A144]
- CC50 (in vitro [1]): > 10 µM
- EC50 [2, 10]: < 0.1 µM
- EC50 [3]: 0.47 µM
- EC50 [4]: 1.88 µM
- inhibition at 5 µM [5, 11]: 99%
- EC50 [5, 14]: 0.24 µM
- CC50 (in vitro [7]): > 10 µM

SMILES: [2H]C([2H])(O)[C@H]1O[C@@](C#N)(c2ccc3c(N)ncnn23)[C@H](O)[C@@H]1OC(=O)C(C)C [Compound A164]
- inhibition at 5 µM [5, 11]: 99%
- EC50 [5, 14]: 0.27 µM

SMILES: [2H]C([2H])(OC(=O)C(C)C)[C@H]1O[C@@](C#N)(c2ccc3c(N)ncnn23)[C@H](OC(=O)C(C)C)[C@@H]1OC(=O)C(C)C [Compound A171]
- inhibition at 5 µM [5, 11]: > 98%

SMILES: [2H]c1cc([C@]2(C#N)O[C@H](C([2H])([2H])O)[C@@H](OC(=O)C(C)C)[C@H]2O)n2ncnc(N)c12 [Compound A173]
- CC50 (in vitro [1]): > 10 µM
- EC50 [3]: 0.46 µM

SMILES: [2H]c1cc([C@]2(C#N)O[C@H](C([2H])([2H])OC(=O)C(C)C)[C@@H](O)[C@H]2O)n2ncnc(N)c12 [Compound A180]
- inhibition at 5 µM [5, 11]: > 98%

SMILES: [2H]c1cc([C@]2(C#N)O[C@H](C([2H])([2H])OC(=O)[C@@H](N)C(C)C)[C@@H](O)[C@H]2O)n2ncnc(N)c12 [Compound A181]
- inhibition at 5 µM [5, 11]: > 98%

SMILES: [2H]c1cc([C@]2(C#N)O[C@H](C([2H])([2H])O)[C@@H](OC(=O)C(C)C)[C@H]2O)n2ncnc(N)c12 [Compound A188]
- inhibition at 5 µM [5, 11]: > 98%

SMILES: [2H]c1cc([C@]2(C#N)O[C@H](C([2H])([2H])OC(=O)C(C)C)[C@@H](OC(=O)C(C)C)[C@H]2OC(=O)C(C)C)n2ncnc(N)c12 [Compound A196]
- inhibition at 5 µM [5, 11]: > 98%

SMILES: [2H]c1cc([C@]2(C#N)O[C@H](C([2H])([2H])OP(=O)(O)OP(=O)(O)OP(=O)(O)O)[C@@H](O)[C@H]2O)n2ncnc(N)c12 [Compound A198]
- inhibition of the activity of RdRp (in words) [9]: significantly inhibit the activity of RdRp

SMILES: CC(C)[C@H](N)C(=O)O[C@H]1[C@@H](O)[C@](C#N)(c2ccc3c(N)ncnn23)O[C@@H]1CO [Compound A212]
- inhibition at 5 µM [5, 11]: 99%
- inhibition at 10 µM [5, 12]: 99%
- EC50 [5, 14]: 0.11 µM

SMILES: [2H]c1cc([C@]2(C#N)O[C@H](CO)[C@@H](OC(=O)[C@@H](N)C(C)C)[C@H]2O)n2ncnc(N)c12 [Compound A213]
- CC50 (in vitro [1]): > 10 µM
- EC50 [3]: 0.76 µM
- EC50 [4]: 1.97 µM
- inhibition at 5 µM [5, 11]: 99%
- EC50 [5, 14]: 0.1 µM
- CC50 (in vitro [7]): > 10 µM

SMILES: [2H]C([2H])(O)[C@H]1O[C@@](C#N)(c2ccc3c(N)ncnn23)[C@H](O)[C@@H]1OC(=O)[C@@H](N)C(C)C [Compound A214]
- inhibition at 5 µM [5, 11]: 99%
- EC50 [5, 14]: 0.11 µM

SMILES: [2H]c1cc([C@]2(C#N)O[C@H](C([2H])([2H])O)[C@@H](OC(=O)[C@@H](N)C(C)C)[C@H]2O)n2ncnc(N)c12 [Compound A215]
- inhibition at 5 µM [5, 11]: > 98%

SMILES: N#C[C@@]1(c2ccc3c(N)ncnn23)O[C@H](CO)[C@@H](O)[C@H]1O [Compound A216]
- EC50 [2]: 1.92 µM
- inhibition at 5 µM [8]: 24%

SMILES: CO[C@@H]1[C@H](O)[C@@H](CO)O[C@@]1(C#N)c1ccc2c(N)ncnn12 [Compound A221]
- EC50 [2, 10]: 1.35 µM
- inhibition at 5 µM [8]: 51%

SMILES: NC(=O)c1nc(F)cnc1O [Favipiravir, reference compound]
- inhibition at 5 µM [5, 11]: 0%
- inhibition at 10 µM [5, 12]: < 20%

SMILES: CCC(CC)COC(=O)[C@H](C)N[P@](=O)(OC[C@H]1O[C@@](C#N)(c2ccc3c(N)ncnn23)[C@H](O)[C@@H]1O)Oc1ccccc1 [Remdesivir, reference compound]
- inhibition at 5 µM [8]: 100%
- EC50 [4]: 0.021 µM
- inhibition at 5 µM [5, 11]: 65%
- inhibition at 10 µM [5, 12]: 99%
- EC50 [5, 14]: 2 µM
- CC50 (in vitro [7]): 25.7 µM

SMILES: NC(=O)c1ncn([C@@H]2O[C@H](CO)[C@@H](O)[C@H]2O)n1 [Ribavirin, reference compound]
- DENV (Vero) value printed without unit ([8]; column head 5 μM, no % printed): 17.4
